Experimental data taken from patent US10568913B2, “Method for generating mature β-like cells” (The University of Western Australia, priority 2013, dated 2020).

Tests used:
[1] = tested on: Ngn3+ progenitor-containing E-cad+ cells; experiment: Insulin-producing (MIPGFP+) cell differentiation from sorted E-cad+ cells of E15.5 MIPGFP mouse pancreas; assay type: cell-based; conditions: for effect on Nic-induced differentiation: co-culture with Nic 10 mM (FIG. 1g, 5, 13, 15); for promotion of MIPGFP+ insulin-producing cell differentiation by the molecule on its own: compound alone, without Nic, day 4 (FIG. 1g, 5a)
Procedure: Approximately 7,500 E15.5 [at which the number of Ngn3^+ progenitors is peaked] mouse fetuses from both MIPGFP and Ngn3-GPF/RIP-DsRed lines were used for enrichment/purification of Ngn3^+ progenitors. Mouse pancreases were dissected under a stereoscope (Olympus, Tokyo, Japan). Eleven human fetal pancreases were collected from 18-22 week-fetuses (Table 1) and minced. Both mouse and human pancreases were enzymatically dissociated into single cells under aseptic conditions. […] After each incubation with antibodies, cells were washed twice with FACS buffer (0.1% bovine serum albumin in phosphate buffered saline) and finally re-suspended in this buffer containing 1 μg/ml propidium iodide (PI) or 4′,6-diamidino-2-phenylindole (DAPI) for sorting (FACSAria II, Becton Dickson Labware, Bedford). The purity of sorted cells was determined by post-sort analysis.
Sorted β-cell progenitor-enriched cells or Ngn3^+ β-cell progenitors were differentiated in 96-, 12- or 6-well plates (BD Labware). […] Growth factor-reduced Matrigel (200 μg/ml, BD Biosciences) was overlayed onto cells in the presence of various potential regulators. Thyrotropin releasing hormone (TRH, 100 nM) was purchased from Auspep (Melbourne, Australia). […] Cultures were incubated in 10% CO2 90% air at 37° C., for up to 8 days.
The number of β-like cells was directly quantified under a fluorescence microscope. To verify the accuracy of cell count, at least five randomly chosen fields per well were microphotographed under the inverse IX71 Olympus fluorescence microscope (Olympus, Tokyo, Japan) and the number of β-like cells determined with the Image Pro Plus software installed in the computer.

MIN6 cells = experiment: Glucose stimulated insulin secretion in highly passaged MIN6 cells; assay type: cell-based, mouse; conditions: FIG. 20, 21
Procedure: The differentiated cells were washed twice with warm PBS. After pre-incubation with Krebs-Ringer buffer at 37° C. for 90 min, the cells were incubated at 37° C. for 60 min with basal D-glucose (2.75 mM) or stimulus D-glucose (27.5 mM). Then each conditioned medium was collected to determine the insulin concentration using an insulin ELISA kit (Mercodia AB, Uppsala, Sweden). MIN6 cells were routinely maintained in a published protocol which contains Dulbecco's modified Eagle's medium (DMEM) containing 25 mM glucose, supplemented with 10% fetal calf serum, 2 mM L-glutamine, 25 mM Hepes, and 285 μM 2-mercaptoethanol. MIN6 cells presented in this study were at passages 30-40 (low passage, LP) or passages 60-70 (high passage, HP). All assays used MIN6 grown to 70-80% confluence unless otherwise stated.

[2] = tested on: human islet progenitors (population III); experiment: Differentiation of FACS-enriched human fetal islet progenitors, immunofluorescence for insulin and glucagon; assay type: cell-based; conditions: 6 days, 10 mM Nic
Excerpt: Approximately 7,500 E15.5 [at which the number of Ngn3^+ progenitors is peaked] mouse fetuses from both MIPGFP and Ngn3-GPF/RIP-DsRed lines were used for enrichment/purification of Ngn3^+ progenitors. Mouse pancreases were dissected under a stereoscope (Olympus, Tokyo, Japan). Eleven human fetal pancreases were collected from 18-22 week-fetuses (Table 1) and minced. Both mouse and human pancreases were enzymatically dissociated into single cells under aseptic conditions. Rat anti-E-cadherin (E-cad, also known as CD324 or uvomorulin) monoclonal antibody IgG2a (Invitrogen, Carlsbad), Alexa Fluor 647 anti-E-cad (eBioscience), rat anti-integrin α6 subunit (α6, also known as CD49f) mAb IgG2a, phycoerythrin (PE) rat anti-human α6 (Becton Dickson Biosciences, San Jose), PE anti-mouse CD133 (also known as prominin I, eBioscience), biotin rabbit anti-rat immunoglobumins, allophycocyanin (APC) rat anti-mouse CD45 and APC rat anti-mouse TER119 and streptavidin APC-Cy7, streptavidin PE-Texas Red, streptavidin APC (BD Biosciences) or streptavidin Alexa Fluor 750 (Invitrogen), were used. […] The purity of sorted cells was determined by post-sort analysis. […]

Ngn3+ islet progenitors = experiment: DsRed+ cell differentiation from purified Ngn3-GFP+ progenitors (Ngn3-GFP/RIP-DsRed mice); assay type: cell-based, mouse
Excerpt: Approximately 7,500 E15.5 [at which the number of Ngn3^+ progenitors is peaked] mouse fetuses from both MIPGFP and Ngn3-GPF/RIP-DsRed lines were used for enrichment/purification of Ngn3^+ progenitors. Mouse pancreases were dissected under a stereoscope (Olympus, Tokyo, Japan). Eleven human fetal pancreases were collected from 18-22 week-fetuses (Table 1) and minced. Both mouse and human pancreases were enzymatically dissociated into single cells under aseptic conditions. Rat anti-E-cadherin (E-cad, also known as CD324 or uvomorulin) monoclonal antibody IgG2a (Invitrogen, Carlsbad), Alexa Fluor 647 anti-E-cad (eBioscience), rat anti-integrin α6 subunit (α6, also known as CD49f) mAb IgG2a, phycoerythrin (PE) rat anti-human α6 (Becton Dickson Biosciences, San Jose), PE anti-mouse CD133 (also known as prominin I, eBioscience), biotin rabbit anti-rat immunoglobumins, allophycocyanin (APC) rat anti-mouse CD45 and APC rat anti-mouse TER119 and streptavidin APC-Cy7, streptavidin PE-Texas Red, streptavidin APC (BD Biosciences) or streptavidin Alexa Fluor 750 (Invitrogen), were used. After each incubation with antibodies, cells were washed twice with FACS buffer (0.1% bovine serum albumin in phosphate buffered saline) and finally re-suspended in this buffer containing 1 μg/ml propidium iodide (PI) or 4′,6-diamidino-2-phenylindole (DAPI) for sorting (FACSAria II, Becton Dickson Labware, Bedford). The purity of sorted cells was determined by post-sort analysis. Data presented represented cell samples with over 90% purity.
Sorted β-cell progenitor-enriched cells or Ngn3^+ β-cell progenitors were differentiated in 96-, 12- or 6-well plates (BD Labware). The basal differentiation medium is Dulbecco's Modified Eagle Medium (Invitrogen) with 5.75 or 27.5 mM D-glucose supplemented with 1% B27 (Invitrogen) and 100 μg/ml streptomycin and 100 units/ml penicillin. Growth factor-reduced Matrigel (200 μg/ml, BD Biosciences) was overlayed onto cells in the presence of various potential regulators. […]
The number of β-like cells was directly quantified under a fluorescence microscope. […]

Row | Compound | effect on Nic-induced differentiation [1] | promotion of MIPGFP+ insulin-producing cell differentiation by the molecule on its own [1] | further results
1 | 6-chloro-2,3,4,9-tetrahydro-1H-carbazo-1-carboxamide [EX527] | did reduce Nic-induced differentiation | did not significantly promote differentiation | 
2 | O=C1Nc2cc(Br)ccc2/C1=C1/Nc2ccccc2/C1=N\O [BIO, (2′Z,3′E)-6-bromoindirubin-3′-oxime] | suppressed or abolished | did not yield | 
3 | C[C@H](NC(=O)Cc1cc(F)cc(F)c1)C(=O)N[C@H](C(=O)OC(C)(C)C)c1ccccc1 [DAPT] |  | did not yield | 
4 | NC(=O)c1ccncc1 [INic, isonicotinamide] |  |  | number of MIPGFP+ cells compared to Nic ([1]; INic 10 mM alone, days 4, 6 and 8): approximately half
5 | NC(=O)c1cccnc1 [Nic, pyridine-3-carboxylic acid amide] |  |  | glucose stimulated insulin secretion (GSIS) in dedifferentiated, highly passaged MIN6 cells (MIN6 cells): regain partial GSIS; α and β cells detected immunochemically in cultured population III [2]: numerous single hormone-positive α and β cells; number of MIPGFP+ cells, fold more in the presence of Nic ([1]; Nic 10 mM, serum-free and feeder-free culture (FIG. 1c,d)): at least 17 fold; number of differentiated DsRed+ cells, share of optimal levels (Ngn3+ islet progenitors; Nic added at 24 hr after plating, counted at day 4): approximately 40%; DsRed+ cells, share of all cells by FACS (Ngn3+ islet progenitors; day 4 of culture, 0% at the start): 35%
6 | O=C(O)C(Cc1c[nH]c2ccccc12)N1C(=O)c2ccccc2C1=O (stereo not drawn) [RG-108, α-(1,3-dihydro-1,3-dioxo-2H-isoindo1-2-yl)-1H-indole-3-propanoic acid] |  | did not yield | 
7 | NC(=O)[C@@H]1CCCN1C(=O)[C@H](Cc1cnc[nH]1)NC(=O)[C@@H]1CCC(=O)N1 [TRH, Thyrotropin releasing hormone] |  | did not yield | 
8 | COc1cc(/C=C/C(=O)CC(=O)/C=C/c2ccc(O)c(OC)c2)ccc1O [curcumin, (E, E)-1,7-bis (4-hydroxy-3-methoxyphenyl)-1,6-heptadiene-3,5-dione] | significantly reduced |  | 
9 | NC(=O)c1ccc[n+]([C@@H]2O[C@H](COP(=O)([O-])O)[C@@H](O)[C@H]2O)c1 [nicotinamide mononucleotide, β-nicotinamide mononucleotide] | did not modify |  | 
10 | O=c1c(O)c(-c2ccc(O)c(O)c2)oc2cc(O)cc(O)c12 [quercetin] | suppressed or abolished | did not yield | 
11 | Oc1ccc(/C=C/c2cc(O)cc(O)c2)cc1 [resveratrol, 5-[(1E)-2-(4-hydroxyphenyl)ethenyl]-1,3-benzenediol] | completely abolished |  | cellular viability ([1]; in combination with Nic): without apparently affecting cellular viability
12 | CCCC(=O)[O-].[Na+] [sodium butyrate] | significantly (p<0.05) reduced |  | 
13 | CC(=O)C(=O)[O-].[Na+] [sodium pyruvate] | significantly inhibited |  | 
14 | CC(/C=C/C(=O)NO)=C\[C@@H](C)C(=O)c1ccc(N(C)C)cc1 [trichostatin A] | significantly (p<0.05) reduced |  | 
15 | C[C@H](NC(=O)Cc1cc(F)cc(F)c1)C(=O)N[C@H]1N=C(c2ccccc2)c2ccccc2N(C)C1=O [γ-secretase inhibitor XXI] |  | did not yield | 
16 | CC(C)C[C@H](NC(=O)[C@H](Cc1ccccc1)C[C@@H](O)[C@H](Cc1ccccc1)NC(=O)OC(C)(C)C)C(=O)N[C@@H](Cc1ccccc1)C(N)=O [γ-secretase inhibitor X] |  | did not yield | 
17 | exendin-4 [Ex4] |  | did not yield | 
